# Read-outs that look alike come from different tables or passages of the source.
# Assays:
# Molt-3 parental cells = assay: Cell cycle analysis (propidium iodide, FACS), Molt-3; assay type: cell-based, human; conditions: Molt-3 cells, 0.5 μM, up to 72 h
# Protocol: (§1) Cells were harvested at indicated time points (n=3), fixed, stained with propidium iodide and analyzed by FACS as described in Materials and Methods. Per cent cells in pre G1 (apoptosic cells) were calculated from DNA histograms.
# (§2) Cell cycle analysis: Distinct phases of the cell cycle were determined in a standard assay using propidium iodide. […] At indicated time points, cells were harvested and fixed in 4.5 ml ethanol (75%, −20° C.) for at least 12 h (4° C.). Cells were washed in PBS (pH 7.4) and resuspended in 250 μl PBS containing RNAse (0.3 mg/ml) and propidium iodide (50 μg/ml) and incubated in the dark (30 min, RT). The DNA histograms defining distinct phases of the cell cycle were subsequently determined in duplicates by FACS analysis and average results were expressed as per cent.
# [1] = test system: CHO Chinese hamster ovary; assay: XTT cytotoxicity assay, CHO; assay type: cell-based
# Protocol: (§4) Cytotoxicity assay: Cytotoxicity was determined by the XTT tetrazolium/formazan assay as previously described (Scudiero D A, Shoemaker R H, Paull K D, et al. Evaluation of a soluble tetrazolium/formazan assay for cell growth and drug sensitivity in culture using human and other tumor cell lines. Cancer Res. 1988; 48:4827-4833.). Briefly, cells were seeded in 96 flat bottom well plates at a density of 10^4/well in 100 μl media and exposed to drug concentrations ranging from 10^−4 to 10^−12 M. At the indicated time points (6-72 hr), cell viability was assessed by adding 50 μl XTT-reagent (1 mg/ml in serum free RPMI) activated with 0.2% v/v PMS (1.53 mg/ml in PBS) incubated at 37° C. for 4 h. Plates were analyzed in a Thermomax (Molecular Devices) micro plate reader at 450 nm. OD values were plotted as a function of drug concentration and the curves were integrated using the softmax software to obtain the IC50 concentration values.
# Water solubility = assay type: physicochemical; conditions: compared with ProVP-16 I
# [2] = test system: NXS2 murine neuroblastoma; assay: XTT cytotoxicity assay, NXS2; assay type: cell-based
# Protocol: (§3) The cytotoxic effect of ProVP-16 I and II was evaluated against a panel of cell lines by triplicate determinations of IC50 concentrations for both prodrugs against each cell line (A). […] Bars represent mean values ±SD.
# [3] = test system: multidrug resistant MOVP-3 cells; assay: XTT cytotoxicity assay, multidrug resistant MOVP-3 subline; assay type: cell-based, human
# Protocol: MDR-1 gene expression was determined by RT-PCR analysis on total RNA isolated from MOVP-3 and Molt-3 cells, respectively (6A). Expression of GAPDH was used as a control for the integrity of the cDNA. […] (6C) Cross-resistance of MOVP-3 cells against MDR-1 drugs (doxorubicin, melphalan, vinblastine and paclitaxel) was calculated from IC50 values (n=3) as described in 6B).
# Cells: Tumor cell lines were grown in RPMI, 10% FCS (Nalm-6, Reh, Molt-3, Jurkat, HL-60, K562, HeLa, CEM, A2780, SW480) or DMEM, 10% FCS (NXS2, SK-N-SH, HT-29) in the presence of 100 IU/ml penicillin/streptomycin (P/S) and propagated under standard tissue culture conditions (5% CO2, 37° C.). All cell lines were obtained from ATCC, Rockville, Md. except NXS2 which was previously described (Lode H N, Xiang R, Varki N M, Dolman C S, Gillies S D, Reisfeld R A. Targeted interleukin-2 therapy for spontaneous neuroblastoma metastases to bone marrow. Journal of the National Cancer Institute. 1997; 89:1586-1594.) and VCR100, ADR5000 and A2780 which were kindly provided by James Beck, Greifswald, Germany (Beck J, Handgretinger R, Dopfer R, Klingebiel T, Niethammer D, Gekeler V. Expression of mdrl, mrp, topoisomerase II alpha/beta, and cyclin A in primary or relapsed states of acute lymphoblastic leukaemias. Br J Haematol. 1995; 89:356-363; Beck J F, Bohnet B, Brugger D, et al. Expression analysis of protein kinase C isozymes and multidrug resistance associated genes in ovarian cancer cells. Anticancer Res. 1998; 18:701-705.).
# [4] = Protocol: The body weight was determined for each animal over time and calculated as per cent of total weight observed on day 0. An event as indicated by Kaplan Maier plots is defined by loss of body weight greater than 20%.
# Body weights and survival were monitored over time.
# [5] = test system: Hamms human colon carcinoma cells; assay: XTT cytotoxicity assay, Hamms; assay type: cell-based
# Protocol: as §4
# Molt-3/MDR-1 cells = conditions: stable transfection with pMDR-IRESpuro
# Protocol: Stable transfection of MDR-1: The MDR-1 cDNA was kindly provided in a pUC based plasmid by C. Baum, University of Hamburg. For mammalian expression, the MDR-1 cDNA was cloned into the bicistronic eukaryotic expression plasmid pIRESpuro using NotI and BamHI restriction sites. pMDR-IRESpuro was transfected into Molt-3 cells by electroporation (960 μF, 250V). Stable transfectants were selected with 300 ng/ml puromycin.
# OD values were plotted as a function of drug concentration and the curves were integrated using the softmax software to obtain the IC50 concentration values.
# SW480 colon carcinoma = conditions: SW480, vs VP-16
# Protocol: as §3
# [6] = for kobs: PBS buffer
# Protocol: ProVP-16 I was incubated in THF/2% HCl and samples were periodically analyzed by HPLC at the indicated time points (A). Hydrolytic activation of ProVP-16 II was determined in phosphate buffered saline (PBS) a t the pH levels indicated (B). ProVP-16 I (3 mM) was incubated in PBS solutions and samples were periodically analyzed by HPLC. The percent conversion was calculated from areas under the curve determined by peak integration.
# [7] = human serum, pH 7.3, 37° C.
# MOVP-3 primary tumors = assay: Anti-tumor effect in a multidrug resistant T-cell leukemia xenograft model; assay type: in vivo, SCID mice
# Protocol: The anti-tumor effect of ProVP-16 II therapy was determined in a multidrug resistant xenograft model (B,C). SCID mice (n=7) were injected s.c. with 5×10^6 MOVP-3 cells and primary tumors of 250 mm^3 average size were established 55 days after inoculation. […] Tumor growth was monitored by microcaliper measurements and tumor size was calculated as described in Materials and Methods (B). […] The body weight of treated animals was determined over time and calculated as per cent of body weight on day 57 (C).
# Anti-tumor effect in a T-cell leukemia xenograft model: Primary tumors were induced by injection of 5×10^6 MOVP 3 cells in 100 μl PBS (pH 7.4) into the skin of the left lateral flank of each SCID mouse. Established primary tumors were palpable 55 days after injection. […] Each mouse received a total of 7 injections on days 55,57,59,69,71,87,90 after tumor cell inoculation. Primary tumor size was determined over time by micro caliper measurements and volumes were calculated according to ½×with^2×length. Body weight was determined on a standard digital scale.
# Molt-3 T-cell leukemia = assay: XTT cytotoxicity assay, Molt-3
# Protocol: as §3
# At the time points indicated, cell viability was determined in triplicate by the XTT assay as described in Materials and Methods. […] Results were plotted as a semilogarithmic function of drug concentration.
# [8] = test system: porcine liver carboxyl ester hydrolase
# MOVP-3 cells = assay: Cell cycle analysis (propidium iodide, FACS), MOVP-3; assay type: cell-based, human; conditions: 0.5 μM, up to 72 h
# Protocol: as §1, §2
structure (smiles),measurement,setting,value
COc1cc(C2c3cc4c(cc3C(OC3OC5COC(C)OC5C(O)C3O)C3COC(=O)C23)OCO4)cc(OC)c1OC(=O)OCC(O)CO (stereo not shown) [ProVP-16 II],induction of apoptosis (pre-G1 peak),Molt-3 parental cells,Induction of apoptosis was also demonstrated
same,response to proetoposides compared with etoposide,[1],responded equally well
same,water solubility,Water solubility,higher water solubility
same,response to proetoposides compared with etoposide,[2],responded equally well
same,resistance of MOVP-3 cells (IC50 MOVP-3÷IC50 Molt-3),[3],no significant difference
same,IC50,[3]; MOVP-3 cells,0.02 µM
same,survival / tolerability,[4]; 20 mg/kg i.p.,well tolerated with no death
same,survival / tolerability,[4]; 60 mg/kg i.p.,well tolerated with no death
same,maximum tolerated dose,[4]; defined by a decrease in body weight <20%,60 mg/kg
same,"decrease of systemic toxicity by the prodrug design, factor","[4]; mouse, in vivo",≥ 3
same,increase in the maximum tolerated dose over the parental compound,[4]; vs VP-16,greater than 3 fold
same,response to proetoposides compared with etoposide,[5],responded equally well
same,sensitivity / resistance of Molt-3/MDR-1 cells,Molt-3/MDR-1 cells,remained fully sensitive
same,IC50 fold lower than parent compound,SW480 colon carcinoma,1000 fold
same,kobs,"[6]; pH 5.0-7.3, 37° C.",no conversion
same,kobs,"[6]; pH 8.0, 37° C.",3.201 ± 0.428 10^−3-min^−1
same,kobs,"[6]; pH 8.8, 37° C.",7.142 ± 0.351 10^−3-min^−1
same,kobs,"[6]; pH 10.5, 37° C.",100.01 ± 12.72 10^−3-min^−1
same,conversion rate,[6]; pH 7.4,< 5%
same,t1/2,[7]; listed as ProPV-16 II,56.1 min
same,t1/2,[7]; listed as Prodrug II,56.07 min
same,anti-tumor response,MOVP-3 primary tumors; 15 mg/kg i.p.,dramatic reduction in primary tumor growth
same,transient average weight loss,MOVP-3 primary tumors; 15 mg/kg i.p.,no measurable weight loss
same,time the regression was stable,MOVP-3 primary tumors; 45 mg/kg i.p.,over 2 months
same,transient weight loss,MOVP-3 primary tumors; 45 mg/kg i.p.,6%
same,animals with regression of established primary tumors,"MOVP-3 primary tumors; 45 mg/kg i.p., 10 days after initiation of treatment",7/7
same,cytotoxic effects at early incubation,"Molt-3 T-cell leukemia; Molt-3, up to 12 h of incubation",absence of cytotoxic effects
same,IC50,"Molt-3 T-cell leukemia; Molt-3 cells, resistance experiment (FIG. 4B)",0.02 µM
same,kobs,[8]; pH 7.3,1.348 ± 0.081 10^−3-min^−1
same,t1/2,"[8]; porcine liver carboxyl ester hydrolase, pH 7.3, 37° C.",514.1 min
same,induction of apoptosis (pre-G1 peak),MOVP-3 cells,very effective in inducing a steady increase in the pre-G1 peak

# Source: patent US7582778B2, “Podophyllotoxin” (Universitatsklinikum Charite der Humboldt-Universitat zu, priority 2001, dated 2009)
